Experimental data from US9290777B2, “Putative cytokinin receptor and methods for use thereof” (NATIONAL UNIVERSITY OF SINGAPORE, priority 2007, dated 2016).
Entries after “also recorded” stand apart in the source; their conditions may differ.

Test system: KNAT1
Assay: qRT-PCR of cytokinin responsive gene after BA pulse, fold change vs untreated wild type
Type: cell-based, Arabidopsis thaliana

SMILES: c1ccc(CNc2ncnc3nc[nH]c23)cc1 [benzyladenine]
- KNAT1 transcripts in OE lines compared to untreated wild type (5 μM BA, 1 h, OE lines (e.g. OE1, OE12), listed as BA): less than a two fold change; also recorded: no significant difference
- KNAT1 fold change (BA 0.01 μM, 5 min, AS1, ↑ up): 8.12↑
- KNAT1 fold change (BA 0.01 μM, 5 min, AS8, ↑ up): 9.1↑
- KNAT1 fold change (BA 0.01 μM, 5 min, AS21, ↑ up): 10.01↑
- KNAT1 fold change (BA 0.01 μM, 5 min, OE1, ↓ down): 4.01↓
- KNAT1 fold change (BA 0.01 μM, 5 min, OE12, ↓ down): 4.87↓
- KNAT1 fold change (BA 0.01 μM, 5 min, OE18, ↓ down): 6.56↓
- KNAT1 fold change (BA 0.01 μM, 5 min, Wild type, ↑ up): 2.13↑
- KNAT1 fold change (BA 0.01 μM, 15 min, AS1, ↑ up): 8.57↑
- KNAT1 fold change (BA 0.01 μM, 15 min, AS8, ↑ up): 9.21↑
- KNAT1 fold change (BA 0.01 μM, 15 min, AS21, ↑ up): 10.39↑
- KNAT1 fold change (BA 0.01 μM, 15 min, OE1, ↓ down): 3.86↓
- KNAT1 fold change (BA 0.01 μM, 15 min, OE12, ↓ down): 4.56↓
- KNAT1 fold change (BA 0.01 μM, 15 min, OE18, ↓ down): 6.32↓
- KNAT1 fold change (BA 0.01 μM, 15 min, Wild type, ↑ up): 2.67↑
- KNAT1 fold change (BA 0.01 μM, 30 min, AS1, ↑ up): 8.98↑
- KNAT1 fold change (BA 0.01 μM, 30 min, AS8, ↑ up): 9.86↑
- KNAT1 fold change (BA 0.01 μM, 30 min, AS21, ↑ up): 10.53↑
- KNAT1 fold change (BA 0.01 μM, 30 min, OE1, ↓ down): 3.41↓
- KNAT1 fold change (BA 0.01 μM, 30 min, OE12, ↓ down): 4.13↓
- KNAT1 fold change (BA 0.01 μM, 30 min, OE18, ↓ down): 6.13↓
- KNAT1 fold change (BA 0.01 μM, 30 min, Wild type, ↑ up): 2.98↑
- KNAT1 fold change (BA 0.01 μM, 1 h, AS1, ↑ up): 9.20↑
- KNAT1 fold change (BA 0.01 μM, 1 h, AS8, ↑ up): 9.98↑
- KNAT1 fold change (BA 0.01 μM, 1 h, AS21, ↑ up): 11.99↑
- KNAT1 fold change (BA 0.01 μM, 1 h, OE1, ↓ down): 3.01↓
- KNAT1 fold change (BA 0.01 μM, 1 h, OE12, ↓ down): 3.06↓
- KNAT1 fold change (BA 0.01 μM, 1 h, OE18, ↓ down): 5.98↓
- KNAT1 fold change (BA 0.01 μM, 1 h, Wild type, ↑ up): 3.15↑
- KNAT1 fold change (BA 0.1 μM, 5 min, AS1, ↑ up): 9.14↑
- KNAT1 fold change (BA 0.1 μM, 5 min, AS8, ↑ up): 10.12↑
- KNAT1 fold change (BA 0.1 μM, 5 min, AS21, ↑ up): 11.11↑
- KNAT1 fold change (BA 0.1 μM, 5 min, OE1, ↓ down): 3.56↓
- KNAT1 fold change (BA 0.1 μM, 5 min, OE12, ↓ down): 3.91↓
- KNAT1 fold change (BA 0.1 μM, 5 min, OE18, ↓ down): 5.89↓
- KNAT1 fold change (BA 0.1 μM, 5 min, Wild type, ↑ up): 3.36↑
- KNAT1 fold change (BA 0.1 μM, 15 min, AS1, ↑ up): 9.39↑
- KNAT1 fold change (BA 0.1 μM, 15 min, AS8, ↑ up): 10.32↑
- KNAT1 fold change (BA 0.1 μM, 15 min, AS21, ↑ up): 11.26↑
- KNAT1 fold change (BA 0.1 μM, 15 min, OE1, ↓ down): 3.24↓
- KNAT1 fold change (BA 0.1 μM, 15 min, OE12, ↓ down): 3.71↓
- KNAT1 fold change (BA 0.1 μM, 15 min, OE18, ↓ down): 5.72↓
- KNAT1 fold change (BA 0.1 μM, 15 min, Wild type, ↑ up): 3.58↑
- KNAT1 fold change (BA 0.1 μM, 30 min, AS1, ↑ up): 9.69↑
- KNAT1 fold change (BA 0.1 μM, 30 min, AS8, ↑ up): 10.57↑
- KNAT1 fold change (BA 0.1 μM, 30 min, AS21, ↑ up): 11.48↑
- KNAT1 fold change (BA 0.1 μM, 30 min, OE1, ↓ down): 3.12↓
- KNAT1 fold change (BA 0.1 μM, 30 min, OE12, ↓ down): 3.59↓
- KNAT1 fold change (BA 0.1 μM, 30 min, OE18, ↓ down): 5.36↓
- KNAT1 fold change (BA 0.1 μM, 30 min, Wild type, ↑ up): 3.89↑
- KNAT1 fold change (BA 0.1 μM, 1 h, AS1, ↑ up): 9.98↑
- KNAT1 fold change (BA 0.1 μM, 1 h, AS8, ↑ up): 10.99↑
- KNAT1 fold change (BA 0.1 μM, 1 h, AS21, ↑ up): 11.83↑
- KNAT1 fold change (BA 0.1 μM, 1 h, OE1, ↓ down): 2.96↓
- KNAT1 fold change (BA 0.1 μM, 1 h, OE12, ↓ down): 3.21↓
- KNAT1 fold change (BA 0.1 μM, 1 h, OE18, ↓ down): 5.01↓
- KNAT1 fold change (BA 0.1 μM, 1 h, Wild type, ↑ up): 3.99↑
- KNAT1 fold change (BA 1.0 μM, 5 min, AS1, ↑ up): 10.43↑
- KNAT1 fold change (BA 1.0 μM, 5 min, AS8, ↑ up): 11.01↑
- KNAT1 fold change (BA 1.0 μM, 5 min, AS21, ↑ up): 11.93↑
- KNAT1 fold change (BA 1.0 μM, 5 min, OE1, ↓ down): 2.76↓
- KNAT1 fold change (BA 1.0 μM, 5 min, OE12, ↓ down): 3.19↓
- KNAT1 fold change (BA 1.0 μM, 5 min, OE18, ↓ down): 4.36↓
- KNAT1 fold change (BA 1.0 μM, 5 min, Wild type, ↑ up): 4.1↑
- KNAT1 fold change (BA 1.0 μM, 15 min, AS1, ↑ up): 10.68↑
- KNAT1 fold change (BA 1.0 μM, 15 min, AS8, ↑ up): 11.43↑
- KNAT1 fold change (BA 1.0 μM, 15 min, AS21, ↑ up): 12.02↑
- KNAT1 fold change (BA 1.0 μM, 15 min, OE1, ↓ down): 2.51↓
- KNAT1 fold change (BA 1.0 μM, 15 min, OE12, ↓ down): 3.01↓
- KNAT1 fold change (BA 1.0 μM, 15 min, OE18, ↓ down): 4.21↓
- KNAT1 fold change (BA 1.0 μM, 15 min, Wild type, ↑ up): 4.31↑
- KNAT1 fold change (BA 1.0 μM, 30 min, AS1, ↑ up): 10.73↑
- KNAT1 fold change (BA 1.0 μM, 30 min, AS8, ↑ up): 11.69↑
- KNAT1 fold change (BA 1.0 μM, 30 min, AS21, ↑ up): 12.35↑
- KNAT1 fold change (BA 1.0 μM, 30 min, OE1, ↓ down): 2.29↓
- KNAT1 fold change (BA 1.0 μM, 30 min, OE12, ↓ down): 2.89↓
- KNAT1 fold change (BA 1.0 μM, 30 min, OE18, ↓ down): 4.01↓
- KNAT1 fold change (BA 1.0 μM, 30 min, Wild type, ↑ up): 4.59↑
- KNAT1 fold change (BA 1.0 μM, 1 h, AS1, ↑ up): 11.01↑
- KNAT1 fold change (BA 1.0 μM, 1 h, AS8, ↑ up): 11.93↑
- KNAT1 fold change (BA 1.0 μM, 1 h, AS21, ↑ up): 12.76↑
- KNAT1 fold change (BA 1.0 μM, 1 h, OE1, ↓ down): 2.01↓
- KNAT1 fold change (BA 1.0 μM, 1 h, OE12, ↓ down): 2.16↓
- KNAT1 fold change (BA 1.0 μM, 1 h, OE18, ↓ down): 3.92↓
- KNAT1 fold change (BA 1.0 μM, 1 h, Wild type, ↑ up): 4.87↑
- KNAT1 fold change (BA 5.0 μM, 5 min, AS1, ↑ up): 10.98↑
- KNAT1 fold change (BA 5.0 μM, 5 min, AS8, ↑ up): 11.98↑
- KNAT1 fold change (BA 5.0 μM, 5 min, AS21, ↑ up): 12.43↑
- KNAT1 fold change (BA 5.0 μM, 5 min, OE1, ↓ down): 2.19↓
- KNAT1 fold change (BA 5.0 μM, 5 min, OE12, ↓ down): 2.87↓
- KNAT1 fold change (BA 5.0 μM, 5 min, OE18, ↓ down): 3.45↓
- KNAT1 fold change (BA 5.0 μM, 5 min, Wild type, ↑ up): 5.52↑
- KNAT1 fold change (BA 5.0 μM, 15 min, AS1, ↑ up): 11.01↑
- KNAT1 fold change (BA 5.0 μM, 15 min, AS8, ↑ up): 12.07↑
- KNAT1 fold change (BA 5.0 μM, 15 min, AS21, ↑ up): 12.54↑
- KNAT1 fold change (BA 5.0 μM, 15 min, OE1, ↓ down): 2.01↓
- KNAT1 fold change (BA 5.0 μM, 15 min, OE12, ↓ down): 2.62↓
- KNAT1 fold change (BA 5.0 μM, 15 min, OE18, ↓ down): 3.18↓
- KNAT1 fold change (BA 5.0 μM, 15 min, Wild type, ↑ up): 5.69↑
- KNAT1 fold change (BA 5.0 μM, 30 min, AS1, ↑ up): 11.23↑
- KNAT1 fold change (BA 5.0 μM, 30 min, Wild type, ↑ up): 5.89↑
- KNAT1 transcripts, dose dependence (BA 0.01-5 μM pulse, 5 min-1 h): dose-dependent increase
